ChEMBL document CHEMBL1671771, “Bismuth heterocycles based on a diphenyl sulfone scaffold: synthesis and substituent effect on the antifungal activity against Saccharomyces cerevisiae” (Eur J Med Chem, 2011)

Test system: Saccharomyces cerevisiae
Test: Antifungal activity against Saccharomyces cerevisiae W303-1A at 30 mM after 48 hrs
Type: functional, organism-based

| Substance | inhibition zone (IZ) |
| --- | --- |
| 1,10-Dichlorophenothiabismine 5,5-dioxide | 13 mm |
| 2,8-Dihydroxy-10-chlorophenothiabismine 5,5-dioxide | 8 mm |
| 2,10-Dichlorophenothiabismine 5,5-dioxide | 13 mm |
| 4,10-Dichlorophenothiabismine 5,5-dioxide | 10 mm |
| 10-(4-Dimethylaminobenzoyloxy)phenothiabismine 5,5-dioxide | 13 mm |
| 10-(4-Nitrobenzoyloxy)phenothiabismine 5,5-dioxide | 17 mm |
| 10-(N,N-Diethyldithiocarbamoyl)phenothiabismine 5,5-dioxide | 0 mm |
| 10-(Pyrrolidinedithiocarbamoyl)phenothiabismine 5,5-dioxide | 0 mm |
| 10-Chloro-2-dimethylaminophenothiabismine 5,5-dioxide | 7 mm |
| 10-Chloro-2-fluorophenothiabismine 5,5-dioxide | 17 mm |
| 10-Chloro-2-methoxyphenothiabismine 5,5-dioxide | 11 mm |
| 10-Chloro-2-methylphenothiabismine 5,5-dioxide | 14 mm |
| 10-Chloro-2-phenylphenothiabismine 5,5-dioxide | 0 mm |
| 10-Chloro-2-tert-butylphenothiabismine 5,5-dioxide | 0 mm |
| 10-Chloro-2-trifluoromethylphenothiabismine 5,5-dioxide | 11 mm |
| 10-Chloro-3-methylphenothiabismine 5,5-dioxide | 8 mm |
| 10-chlorobenzo[b][1,4]benzothiabismine 5,5-dioxide | 18 mm |
| tert-butyl-[2-[tert-butyl(dimethyl)silyl]oxy-10-chloro-5,5-dioxo-benzo[b][1,4]benzothiabismin-8-yl]oxy-dimethyl-silane | 0 mm |
